Each structure is given as a SMILES string. A value given as a limit tells only on which side of the number the result lay.

What all share (assay type): functional, cell-based
For assay [1], the target named is T1, Metabotropic glutamate receptor 2 (Homo sapiens, UniProt Q14416). Nature of the assay: Agonist activity at human mGluR2 expressed in CHO cells at by [S35]GTPgammaS binding assay.
Target sequence in this assay (Q14416 whole entry): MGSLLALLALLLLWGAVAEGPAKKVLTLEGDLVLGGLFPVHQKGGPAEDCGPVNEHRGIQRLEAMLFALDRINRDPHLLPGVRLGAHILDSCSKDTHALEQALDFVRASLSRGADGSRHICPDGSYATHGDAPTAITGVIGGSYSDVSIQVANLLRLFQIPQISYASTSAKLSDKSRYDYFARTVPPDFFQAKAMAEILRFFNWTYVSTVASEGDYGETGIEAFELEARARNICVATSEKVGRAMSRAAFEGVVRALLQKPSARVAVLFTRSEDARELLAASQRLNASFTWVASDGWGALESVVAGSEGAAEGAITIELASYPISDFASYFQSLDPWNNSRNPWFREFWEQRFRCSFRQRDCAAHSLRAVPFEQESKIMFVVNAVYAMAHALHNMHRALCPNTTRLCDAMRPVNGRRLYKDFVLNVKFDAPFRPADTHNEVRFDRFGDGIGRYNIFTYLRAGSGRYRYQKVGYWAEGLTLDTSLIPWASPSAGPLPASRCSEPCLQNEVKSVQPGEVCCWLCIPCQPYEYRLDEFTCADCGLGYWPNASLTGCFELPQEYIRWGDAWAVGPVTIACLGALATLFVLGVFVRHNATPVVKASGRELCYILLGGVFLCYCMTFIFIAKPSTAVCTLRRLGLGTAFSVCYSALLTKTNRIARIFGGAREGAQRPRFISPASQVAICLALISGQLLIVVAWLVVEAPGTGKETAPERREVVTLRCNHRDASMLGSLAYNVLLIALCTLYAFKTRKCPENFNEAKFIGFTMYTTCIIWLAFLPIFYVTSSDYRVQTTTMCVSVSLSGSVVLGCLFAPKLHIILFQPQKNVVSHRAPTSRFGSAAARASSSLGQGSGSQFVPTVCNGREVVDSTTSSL
Assay [2] has as its target T1, Metabotropic glutamate receptor 2. Nature of the assay: Agonist activity at human mGluR2 expressed in CHO cells at by [S35]GTPgammaS binding assay relative to glutamate.
Target sequence in this assay (Q14416 19-872 limits assumed): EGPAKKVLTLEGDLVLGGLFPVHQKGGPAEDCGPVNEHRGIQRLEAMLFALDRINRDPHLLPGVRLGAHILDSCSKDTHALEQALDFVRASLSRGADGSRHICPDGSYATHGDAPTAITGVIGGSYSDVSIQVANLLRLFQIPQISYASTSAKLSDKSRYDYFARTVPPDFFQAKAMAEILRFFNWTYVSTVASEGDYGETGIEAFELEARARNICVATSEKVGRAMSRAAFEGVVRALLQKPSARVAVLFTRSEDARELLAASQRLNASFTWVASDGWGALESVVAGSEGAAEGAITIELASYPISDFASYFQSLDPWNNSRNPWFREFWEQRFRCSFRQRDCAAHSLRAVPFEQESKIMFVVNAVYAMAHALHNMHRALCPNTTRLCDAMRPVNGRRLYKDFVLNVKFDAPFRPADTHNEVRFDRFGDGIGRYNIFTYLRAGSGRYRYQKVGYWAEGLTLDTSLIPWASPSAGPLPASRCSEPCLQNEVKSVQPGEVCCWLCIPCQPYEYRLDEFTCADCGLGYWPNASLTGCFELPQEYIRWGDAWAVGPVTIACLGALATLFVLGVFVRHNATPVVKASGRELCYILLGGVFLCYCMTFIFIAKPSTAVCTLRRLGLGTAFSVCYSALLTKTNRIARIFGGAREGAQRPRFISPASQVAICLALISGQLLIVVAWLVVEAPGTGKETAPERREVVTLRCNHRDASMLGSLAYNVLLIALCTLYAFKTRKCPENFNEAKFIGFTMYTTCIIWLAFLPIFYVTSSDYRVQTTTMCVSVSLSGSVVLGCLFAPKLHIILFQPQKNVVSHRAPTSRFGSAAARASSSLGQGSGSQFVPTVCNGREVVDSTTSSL
Assay [3] has the same target. Nature of the assay: Agonist activity at human mGluR2 expressed in HEK293 cells assessed as induction of calcium release by FLIPR assay.
Target sequence in this assay (Q14416 whole entry): as the sequence (Q14416 whole entry) above

In assay [1], `CCCn1ccc2cc(OCCc3cccnc3)cc(Cl)c2c1=O` had an EC50 of 794 nM. Besides, the Emax in assay [2] came out at 47%.

For the compound `CCCn1ccc2cc(-c3ccncc3)cc(Cl)c2c1=O`, in assay [1], the EC50 is 1260 nM. Besides, the Emax in assay [2] was determined as 73%.

Consider `CCCn1ccc2cc(N3CCC(O)CC3)cc(Cl)c2c1=O`, for which the response in assay [1] was half-maximal at 5010 nM (EC50). Moreover, in assay [2], the Emax came out at 106%.

For `CCCn1ccc2cc(-c3ccc(OCc4ccc(Cl)nc4)cc3)cc(Cl)c2c1=O`, the EC50 in assay [1] is 398 nM. Further, the Emax in assay [2] is 81%.

As to `CCCn1ccc2cc(-c3cn[nH]c3)cc(Cl)c2c1=O`, the EC50 in assay [1] is 1580 nM. The Emax in assay [2] turned out to be 65%.

In turn, `CCCn1ccc2cc(-c3ccc(OCc4cccnc4)nc3)cc(Cl)c2c1=O` showed an EC50 in assay [1] of 316 nM. This compound also showed an Emax in assay [2] of 120%.

In assay [1], `CCCn1ccc2cc(-c3cnc(OC)c(F)c3)cc(Cl)c2c1=O` showed an EC50 of 398 nM. Moreover, the Emax in assay [2] amounted to 75%.

The compound `CCCn1ccc2cc(-c3ccc(OCc4cccnc4)cc3)cc(Cl)c2c1=O` had an EC50 in assay [1] of 1260 nM. In assay [2], the Emax turned out to be 64%.

Take `CCCn1ccc2cc(N3CCOCC3)cc(Cl)c2c1=O`: the values for the EC50 in assay [1] and in assay [3] were 5010 nM and 2510 nM, respectively. The compound further returned an Emax in assay [2] of 104%.

Consider `CCCn1ccc2cc(-c3ccc(OC)cc3)cc(Cl)c2c1=O`, for which a half-maximal response in assay [1] (EC50) required 316 nM. Also, the Emax in assay [2] was 136%.

As to `CCCn1ccc2cc(-c3ccc(OCCc4ccccc4)nc3)cc(Cl)c2c1=O`, the midpoint of the response in assay [1], the EC50, lay at 631 nM. Moreover, the Emax in assay [2] worked out at 103%.

`CCCn1ccc2cc(-c3cccnc3)cc(C#N)c2c1=O` gave an EC50 in assay [1] greater than 50100 nM.

In turn, `CCCn1ccc2cc(-c3ccc(Oc4ccccc4)nc3)cc(Cl)c2c1=O` had an EC50 in assay [1] of 501 nM. The Emax in assay [2] came to 92%.

In assay [1], `CCCn1ccc2cc(NCc3cccnc3)cc(Cl)c2c1=O` had a concentration for a half-maximal effect (EC50) of 3160 nM. For the same compound, the Emax in assay [2] was 82%.

`CCCn1ccc2cc(-c3ccc(Oc4ccccc4)cc3)cc(Cl)c2c1=O`: the EC50 in assay [1] was 2000 nM. The Emax in assay [2] was 88%.

For `CCCn1ccc2cc(-c3cccnc3)cc(Cl)c2c1=O`, a half-maximal effect in assay [1] (EC50) was put at 631 nM. In assay [2], this compound yielded an Emax of 83%.

`CCCn1ccc2cc(-c3ccc(N4CCOCC4)nc3)cc(Cl)c2c1=O` showed an EC50 in assay [1] of 794 nM. In assay [2], the Emax turned out to be 84%.

Turning to `CCCn1ccc2cc(N3CCOCC3)ccc2c1=O`, the EC50 in assay [1] was greater than 10000 nM. For the same compound, the Emax in assay [2] was found to be 66%.

Take `CCCn1ccc2cc(-c3ccc(OC)nc3)cc(Cl)c2c1=O`: it took 794 nM to reach a half-maximal effect in assay [1] (EC50). In addition, in assay [2], the Emax is 121%.

`CCCn1ccc2cc(-c3ccc(Oc4ccncc4)cc3)cc(Cl)c2c1=O` showed an EC50 in assay [1] of 158 nM. Besides, the Emax in assay [2] was 90%.

Consider `CCCn1ccc2cc(N3CCNCC3)cc(Cl)c2c1=O`, for which the half-maximal effective concentration (EC50) in assay [1] is greater than 10000 nM. The compound also displayed an Emax in assay [2] of 47%.

The compound `CCCn1ccc2cc(-c3ccc(OCc4ccc(C(F)(F)F)nc4)cc3)cc(Cl)c2c1=O` gave an EC50 in assay [1] of 251 nM. In assay [2], this compound gave an Emax of 170%.

The compound `CCCn1ccc2cc(-c3cncnc3)cc(Cl)c2c1=O` gave an EC50 in assay [1] of 3980 nM. This compound returned an Emax in assay [2] of 28%.

The compound `CCCn1ccc2cc(OCCCc3cccnc3)cc(Cl)c2c1=O` gave an EC50 in assay [1] of 631 nM. The compound further showed an Emax in assay [2] of 75%.

Regarding `CCCn1ccc2cc(OCc3cccnc3)cc(Cl)c2c1=O`, in assay [1], a half-maximal response (EC50) required 2510 nM. Moreover, the Emax in assay [2] was found to be 126%.

In turn, `CCCn1ccc2cc(-c3cccnc3)ccc2c1=O` had an EC50 in assay [1] of 7940 nM. This compound also showed an Emax in assay [2] of 81%.

On to `CCCn1ccc2cc(-c3ccc(N(C)C)nc3)cc(Cl)c2c1=O`, for which the EC50 in assay [1] was 5010 nM. The Emax in assay [2] was 85%.

One may read the EC50 as the concentration needed to bring the measured effect to its halfway point. A word on the Emax: it is the greatest response seen or fitted, relative to the assay's reference.

These data come from ChEMBL document CHEMBL1667810, “New positive allosteric modulators of the metabotropic glutamate receptor 2 (mGluR2): identification and synthesis of N-propyl-8-chloro-6-substituted isoquinolones” (Bioorg Med Chem Lett, 2011).
